pIC50: −log10 of the molar value.

Data on 45 compounds can be found in patent US10233191B2, “Fused piperidine amides as modulators of ion channels” (Vertex Pharmaceuticals Incorporated, priority 2013, dated 2019).

For this experiment, the target named is T1, NaV 1.7 (Homo sapiens, UniProt Q15858).
T1 construct: expressed in transfected cells; host or cells: HEK cells
T1 sequence (Q15858 whole entry): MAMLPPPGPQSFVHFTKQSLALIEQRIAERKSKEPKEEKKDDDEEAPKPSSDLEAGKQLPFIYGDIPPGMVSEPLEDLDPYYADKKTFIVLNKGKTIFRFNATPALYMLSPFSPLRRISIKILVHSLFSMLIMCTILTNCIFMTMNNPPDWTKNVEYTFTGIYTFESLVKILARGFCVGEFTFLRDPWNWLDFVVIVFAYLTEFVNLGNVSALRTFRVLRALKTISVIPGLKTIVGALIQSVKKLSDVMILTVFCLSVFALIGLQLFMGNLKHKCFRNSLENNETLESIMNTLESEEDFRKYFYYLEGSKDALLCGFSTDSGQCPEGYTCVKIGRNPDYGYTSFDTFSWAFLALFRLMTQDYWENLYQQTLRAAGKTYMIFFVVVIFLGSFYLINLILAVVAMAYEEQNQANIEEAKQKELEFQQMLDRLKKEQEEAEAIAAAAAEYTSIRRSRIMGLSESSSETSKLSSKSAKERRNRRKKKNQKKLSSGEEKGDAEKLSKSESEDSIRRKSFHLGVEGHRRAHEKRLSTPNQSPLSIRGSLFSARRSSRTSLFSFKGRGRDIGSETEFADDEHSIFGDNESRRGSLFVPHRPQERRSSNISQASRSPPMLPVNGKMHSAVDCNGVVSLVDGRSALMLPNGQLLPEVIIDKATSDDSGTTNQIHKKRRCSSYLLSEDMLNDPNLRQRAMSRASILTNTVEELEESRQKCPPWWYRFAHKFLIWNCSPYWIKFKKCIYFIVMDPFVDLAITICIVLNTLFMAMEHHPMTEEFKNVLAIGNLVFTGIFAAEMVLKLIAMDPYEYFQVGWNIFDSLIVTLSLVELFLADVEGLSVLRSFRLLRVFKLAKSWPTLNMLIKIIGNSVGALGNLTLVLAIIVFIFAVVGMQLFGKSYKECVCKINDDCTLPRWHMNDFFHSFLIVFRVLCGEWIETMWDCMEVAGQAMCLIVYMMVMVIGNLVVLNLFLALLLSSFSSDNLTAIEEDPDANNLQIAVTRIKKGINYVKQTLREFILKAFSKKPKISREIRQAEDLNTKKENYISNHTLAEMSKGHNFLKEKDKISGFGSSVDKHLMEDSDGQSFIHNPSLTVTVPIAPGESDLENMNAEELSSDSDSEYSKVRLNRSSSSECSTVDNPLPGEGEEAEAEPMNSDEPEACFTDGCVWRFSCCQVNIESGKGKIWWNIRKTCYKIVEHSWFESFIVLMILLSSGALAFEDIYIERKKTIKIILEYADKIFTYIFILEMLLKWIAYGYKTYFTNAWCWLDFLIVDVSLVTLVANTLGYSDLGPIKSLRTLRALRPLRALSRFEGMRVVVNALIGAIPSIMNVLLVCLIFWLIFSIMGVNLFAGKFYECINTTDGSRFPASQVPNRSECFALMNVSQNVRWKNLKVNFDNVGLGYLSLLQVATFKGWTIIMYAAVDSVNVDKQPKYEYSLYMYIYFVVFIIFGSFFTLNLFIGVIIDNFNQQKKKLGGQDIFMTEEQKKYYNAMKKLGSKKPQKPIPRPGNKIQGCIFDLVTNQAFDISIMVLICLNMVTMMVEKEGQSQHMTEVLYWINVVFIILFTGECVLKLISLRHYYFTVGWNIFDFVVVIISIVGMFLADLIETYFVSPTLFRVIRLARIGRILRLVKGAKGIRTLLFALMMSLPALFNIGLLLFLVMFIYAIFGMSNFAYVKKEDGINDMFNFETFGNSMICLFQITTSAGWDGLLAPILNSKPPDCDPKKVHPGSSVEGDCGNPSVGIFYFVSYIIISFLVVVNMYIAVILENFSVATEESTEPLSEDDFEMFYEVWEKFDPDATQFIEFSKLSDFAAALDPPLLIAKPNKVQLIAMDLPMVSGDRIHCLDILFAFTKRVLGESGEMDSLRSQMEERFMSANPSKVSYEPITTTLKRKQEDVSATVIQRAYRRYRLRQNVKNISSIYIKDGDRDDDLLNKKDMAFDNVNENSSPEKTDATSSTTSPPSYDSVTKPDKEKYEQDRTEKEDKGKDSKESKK
The experiment is described as follows: E-VIPR optical membrane potential assay with electrical stimulation. In kind it is cell-based. As to conditions: active against one or more sodium channels; assay/subtype not specified in Table 4; read-out: IC50 Binned Activity Data. In outline: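 HEK cells expressing human NaV1.7, loaded with CC2-DMPE/DiSBAC6(3) FRET dyes, then exposed to compounds for 20-35 min at room temperature (0.625% DMSO). Electrical stimulation applied for 9 s with 400 Hz scanning. Read-out is the background-subtracted 460/580 nm emission ratio, normalized.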
Take `COc1nc(C(=O)N2CC[C@@]3(c4cccc(F)c4)OCOC3C2)ccc1OCC1(C(F)(F)F)CC1` (stereo partly drawn) [Compound 213]: the pIC50 is not below 5.70.

Regarding `COc1cc(C(=O)N2CC[C@@]3(c4cccc(F)c4)OCOC3C2)ccc1OCCOC(F)(F)F` (stereo partly drawn) [Compound 214], the pIC50 is not below 5.70.

On to `COc1cc(C(=O)N2CC[C@@]3(c4cccc(F)c4)OCOC3C2)ccc1OCC1CC(F)(F)C1` (stereo partly drawn) [Compound 215], for which the pIC50 was not below 5.70.

`O=C(c1ccc(OCCOC(F)(F)F)c(Cl)c1)N1CC[C@@]2(c3cccc(F)c3)OCOC2C1` (stereo partly drawn) [Compound 216]: the pIC50 was not below 5.70.

As to `CC(C)(F)COc1ccc(C(=O)N2CC[C@@]3(c4cccc(F)c4)OCOC3C2)cc1Cl` (stereo partly drawn) [Compound 217], the pIC50 was 5.30 to 5.70.

As for `O=C(c1ccc(OCCC(F)(F)F)c(C(F)(F)F)c1)N1CC[C@@]2(c3cccc(F)c3)OCOC2C1` (stereo partly drawn) [Compound 218], the negative-log IC50 (pIC50) was not below 5.70.

With `CC(C)(F)COc1ccc(C(=O)N2CC[C@@]3(c4cccc(F)c4)OCOC3C2)cc1C(F)(F)F` (stereo partly drawn) [Compound 219], the pIC50 is less than 5.30.

In the case of `O=C(c1ccc(OCCOC(F)(F)F)c(F)c1)N1CC[C@@]2(c3cccc(F)c3)OCOC2C1` (stereo partly drawn) [Compound 220], the pIC50 was 5.30 to 5.70.

On to `COc1cc(Cl)nc([C@]23CCN(C(=O)c4ccc(OCCOC(F)(F)F)c(OC)c4)CC2OCO3)c1` (stereo partly drawn) [Compound 221], for which the pIC50 was not below 5.70.

As for `COc1cc(C(=O)N2CC[C@]3(c4cc(C(F)(F)F)ccn4)OCOC3C2)ccc1OCCC1CC1(F)F` (stereo partly drawn) [Compound 222], the pIC50 is not below 5.70.

For the compound `COc1nc(C(=O)N2CC[C@]3(c4cccc(F)c4)OCOC3C2)ccc1OCC1CC2(C1)CC(F)(F)C2` (stereo partly drawn) [Compound 223], the pIC50 is not below 5.70.

As for `COc1nc(C(=O)N2CC[C@]3(c4cccc(F)c4)OCOC3C2)ccc1OC(C)C1CC(F)(F)C1` (stereo partly drawn) [Compound 224], the pIC50 is not below 5.70.

Turning to `COc1cc(C(=O)N2CC[C@]3(c4cc(F)cc(F)c4)OCOC3C2)ccc1OCC1CC(F)(F)C1` (stereo partly drawn) [Compound 225], the pIC50 was not below 5.70.

With `COc1cc(C(=O)N2CC[C@]3(c4cc(C(F)(F)F)ccn4)OCOC3C2)ccc1OCC1CC(F)(F)C1` (stereo partly drawn) [Compound 226], the pIC50 is not below 5.70.

In the case of `COc1nc(C(=O)N2CC[C@]3(c4cccc(F)c4)OCOC3C2)ccc1OCC(F)(F)C1CC1` (stereo partly drawn) [Compound 227], the pIC50 was not below 5.70.

In the case of `COc1cc(C(=O)N2CC[C@]3(c4cccc(F)c4)OCOC3C2)ccc1OCCOC(F)(F)F` (stereo partly drawn) [Compound 228], the pIC50 was not below 5.70.

In the case of `COc1nc(C(=O)N2CC[C@]3(c4cccc(F)c4)OCOC3C2)ccc1O[C@H]1CC2[C@H](C1)C2(F)F` (stereo partly drawn) [Compound 229], the pIC50 is not below 5.70.

As for `COc1nc(C(=O)N2CC[C@]3(c4cccc(F)c4)OCOC3C2)ccc1O[C@@H]1CC2[C@H](C1)C2(F)F` (stereo partly drawn) [Compound 230], the pIC50 is not below 5.70.

For `COc1nc(C(=O)N2CC[C@]3(c4cccc(F)c4)OCOC3C2)ccc1OC1CC=CC1` (stereo partly drawn) [Compound 231], the pIC50 was not below 5.70.

Take `COc1nc(C(=O)N2CC[C@]3(c4cccc(F)c4)OCOC3C2)ccc1OCC1CC=CC1` (stereo partly drawn) [Compound 232]: the pIC50 was not below 5.70.

On to `COc1nc(C(=O)N2CC[C@]3(c4cccc(F)c4)OCOC3C2)ccc1OC1CC(F)(F)C1` (stereo partly drawn) [Compound 233], for which the pIC50 is not below 5.70.

`COc1nc(C(=O)N2CC[C@]3(c4cccc(F)c4)OCOC3C2)ccc1OC(C)C(F)(F)C(F)F` (stereo partly drawn) [Compound 234]: the pIC50 was not below 5.70.

Consider `COc1nc(C(=O)N2CC[C@]3(c4cccc(F)c4)OCOC3C2)ccc1OCC1CCC(F)(F)C1` (stereo partly drawn) [Compound 235], for which the pIC50 was not below 5.70.

For `COc1nc(C(=O)N2CC[C@]3(c4cccc(F)c4)OCOC3C2)ccc1OCC1CC2C(C1)C2(F)F` (stereo partly drawn) [Compound 236], the pIC50 was not below 5.70.

As for `COc1nc(C(=O)N2CC[C@]3(c4cccc(F)c4)OCOC3C2)ccc1OCC1CC2C(C1)C2(F)F` (stereo partly drawn) [Compound 237], the pIC50 is not below 5.70.

As for `O=C(c1ccc(OCCOC(F)(F)F)c(Cl)c1)N1CCC2(c3ccccn3)CC2C1` (stereo not drawn) [Compound 238], the pIC50 was not below 5.70.

As for `COc1cc(C(=O)N2CC[C@]3(c4cccc(F)c4)OCOC3C2)ccc1OC(C)C(F)(F)C(F)F` (stereo partly drawn) [Compound 239], the pIC50 is not below 5.70.

With `COc1cc(C(=O)N2CC[C@]3(c4cccc(F)c4)OCOC3C2)ccc1OCC1CC(F)C1` (stereo partly drawn) [Compound 240], the negative logarithm of the IC50 (pIC50) was not below 5.70.

Turning to `COc1cc(C(=O)N2CC[C@]3(c4cccc(F)c4)OCOC3C2)ccc1OCC1CCC1` (stereo partly drawn) [Compound 241], the pIC50 is 5.30 to 5.70.

Consider `COc1cc(C(=O)N2CC[C@]3(c4cccc(Cl)c4)OCOC3C2)ccc1O[C@H](C)C(F)(F)F` (stereo partly drawn) [Compound 243], for which the pIC50 was not below 5.70.

On to `COc1cc(C(=O)N2CC[C@]3(c4cccc(Cl)c4)OCOC3C2)ccc1O[C@@H](C)C(F)(F)F` (stereo partly drawn) [Compound 244], for which the pIC50 is not below 5.70.

With `COc1ccnc([C@]23CCN(C(=O)c4ccc(OCCOC(F)(F)F)c(Cl)c4)CC2OCO3)c1` (stereo partly drawn) [Compound 245], the pIC50 is not below 5.70.

In the case of `COc1ccnc([C@]23CCN(C(=O)c4ccc(OCC5CC(F)(F)C5)c(OC)n4)CC2OCO3)c1` (stereo partly drawn) [Compound 246], the pIC50 is not below 5.70.

As for `O=C(c1ccc(OCCOC(F)(F)F)c(Cl)c1)N1CC[C@@]2(c3ccccn3)C(C1)C2(F)F` (stereo partly drawn) [Compound 247], the pIC50 was not below 5.70.

For the compound `O=C(c1ccc(OCCOC(F)(F)F)c(Cl)c1)N1CC[C@]2(c3cc(C(F)(F)F)ccn3)OCOC2C1` (stereo partly drawn) [Compound 248], the pIC50 is not below 5.70.

Turning to `CCOc1nc(C(=O)N2CC[C@]3(c4cccc(F)c4)OCOC3C2)ccc1OCCOC(F)(F)F` (stereo partly drawn) [Compound 249], the pIC50 was not below 5.70.

For the compound `COc1nc(C(=O)N2CC[C@]3(c4cc(C(F)(F)F)ccn4)OCOC3C2)ccc1OCC1CC(F)(F)C1` (stereo partly drawn) [Compound 250], the negative logarithm of the IC50 (pIC50) was not below 5.70.

Take `COc1cc(C(=O)N2CC[C@]3(c4cc(C(F)(F)F)ccn4)OCOC3C2)ccc1OCCC(F)(F)F` (stereo partly drawn) [Compound 251]: the pIC50 is not below 5.70.

For `COc1cc(C(=O)N2CC[C@]3(c4cccc(F)c4)OCOC3C2)ccc1OCCC1CC1(F)F` (stereo partly drawn) [Compound 252], the pIC50 was not below 5.70.

With `O=C(c1ccc(OCCOC(F)(F)F)c(Cl)c1)N1CC[C@@]2(c3ccccn3)COC2C1` (stereo partly drawn) [Compound 253], the pIC50 is not below 5.70.

As to `COc1nc(C(=O)N2CC[C@]3(c4cccc(F)c4)OCOC3C2)ccc1OCC1CC(F)(F)C1(F)F` (stereo partly drawn) [Compound 254], the pIC50 is not below 5.70.

As for `O=C(c1ccc(OCCOC(F)(F)F)c(Cl)c1)N1CC[C@]2(c3cccc(F)c3)OCOC2C1` (stereo partly drawn) [Compound 255], the pIC50 was not below 5.70.

As for `Cc1cc(C(=O)N2CC[C@]3(c4cccc(F)c4)OCOC3C2)ccc1OCC(C)(C)F` (stereo partly drawn) [Compound 256], the pIC50 is not below 5.70.

On to `COc1cc(C(=O)N2CC[C@]3(c4cccc(F)c4F)OCOC3C2)ccc1O[C@H](C)C(F)(F)F` (stereo partly drawn) [Compound 257], for which the pIC50 is not below 5.70.

Consider `COc1cc(C(=O)N2CC[C@]3(c4cccc(F)c4F)OCOC3C2)ccc1O[C@@H](C)C(F)(F)F` (stereo partly drawn) [Compound 258], for which the pIC50 was not below 5.70.
